Publication PMC9250534, “Synthesis and direct assay of large macrocycle diversities by combinatorial late-stage modification at picomole scale” (Nature Communications, 2022)
Numbered stars: 1 amine (or outer) side, 2 acyl side, 3 side chain; on linkers, the order of the positions; unused ones are H or OH. Bridge positions count the residues as written; N and C are the ends. Square brackets hold non-standard residues; d marks the D form. Peptide text beside a SMILES is read from it. * marks the point of attachment. Pyrazinoyl(5-oxo-4H) = O=C(c1c[nH]c(=O)cn1)*; Nicotinoyl(6-OMe) = COc1ccc(C(=O)*)cn1; Cysteamide = C(CS[*:3])N[*:1]; 2Furoyl = O=C(c1ccco1)*; Mpa = O=C(O)CCS

Target: T1, thrombin (Homo sapiens, UniProt P00734)
T1 construct: consists of two polypeptide chains of 36 (light chain) and 259 amino acid
Test: Thrombin inhibition screen of crude macrocycle reactions (residual thrombin activity, fluorogenic substrate Z-Gly-Gly-Arg-AMC)
Type: biochemical
Conditions: 10 µM macrocycle concentration; for percent residual thrombin activity: crude reactions, Library 1a-l, scaffold AA1-AA2-AA3 combined with 1-16 or '-'; for % thrombin activity, Original screen / % thrombin activity, Repeat screen: macrocycles containing acid 14, crude reaction; for % thrombin activity, Repeat screen: replicate reaction and screen
Procedure, shortened: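 Each crude macrocycle (10 μM) was preincubated 10 min at room temperature with thrombin (2 nM final) in Tris-Cl pH 7.4 containing NaCl, MgCl2, CaCl2, 0.1% BSA, 0.01% Triton X-100 and 0.6% DMSO. Z-Gly-Gly-Arg-AMC (50 μM final) was then added. Inhibition came from fluorescence slopes relative to DMSO-only controls.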

SMILES	percent residual thrombin activity	% thrombin activity, Original screen	% thrombin activity, Repeat screen
CC(C)CC(=O)NCCCC[C@@H]1NC(=O)CCSSCCNC(=O)C2(CC2)CNC(=O)[C@H](C(C)C)NC1=O [D1-V-B6/8]	110.303%		
O=C1CCSSCCNC(=O)[C@H](CCCNC(=O)c2ccccc2)NC(=O)c2ccc(cc2)CNC(=O)[C@H](CO)N1 [S-B3-D2/1]	105.629%		
CC[C@H](C)[C@@H]1NC(=O)[C@H](CCCNC(=O)c2ccc(Cl)s2)NC(=O)CCSSCCNC(=O)CCNC1=O [D2-I-B2/14]	94.0704%		
O=C1CCSSCCNC(=O)[C@H](Cc2cnc[nH]2)NC(=O)c2cccc(c2)CNC(=O)[C@H](CCCNC(=O)c2ccc(Cl)s2)N1 [X D2 B5 H]		93.0%	94.7%
O=C1CCNC(=O)[C@@H](CO)NC(=O)CCSSCCNC(=O)[C@H](CCCCNC(=O)c2c[nH]c(=O)cn2)N1 [s-B2-D1/9]	109.681%		
C[C@H]1NC(=O)CCSSCCNC(=O)[C@H](CCCCNC(=O)c2ccco2)NC(=O)[C@@H]2CCCN2C1=O [a-B1-D1/16] ([Mpa][dA]PK(2Furoyl)-Cysteamide; disulfide 1-C)	111.353%		
CC(C)C[C@@H]1NC(=O)c2ccc(cc2)CNC(=O)CCSSCCNC(=O)C2(CCN(C(=O)c3ccc(Cl)s3)CC2)NC1=O [X B3 L D6]		91.2%	94.4%
CC(C)CC(=O)NCCC[C@@H]1NC(=O)CCSSCCNC(=O)[C@H](CCC(N)=O)NC(=O)c2ccc(cc2)CNC1=O [D2-B3-Q/8]	112.114%		
O=C1CCSSCCNC(=O)[C@@H](Cc2ccc(O)cc2)NC(=O)CCNC(=O)[C@H](CCCCNC(=O)c2ccco2)N1 [D1-B2-y/16]	114.281%		
NC(=O)CC[C@@H]1NC(=O)CCSSCCNC(=O)[C@H]2CCCN(C2)C(=O)[C@H](CCCCNC(=O)c2c[nH]c(=O)[nH]c2=O)NC1=O [Q-D1-B4/11]	113.771%		
O=C1CCSSCCNC(=O)[C@H]2CCCN(C2)C(=O)[C@H](CCCCNC(=O)c2ccc(Cl)s2)NC(=O)[C@H](Cc2ccc(O)cc2)N1 [Y-D1-B4/14]	97.8547%		
CC(C)[C@@H]1NC(=O)[C@H](CCCCNC(=O)c2c[nH]c(=O)cn2)NC(=O)CCSSCCNC(=O)C2(CC2)CNC1=O [D1-V-B6/9]	106.409%		
COc1ccc(C(=O)NCCCC[C@@H]2NC(=O)[C@@H](C)NC(=O)CCSSCCNC(=O)c3cccc(c3)CNC2=O)cn1 [a-D1-B5/10]	109.062%		
NCCCC[C@@H]1NC(=O)[C@@H](Cc2c[nH]c3ccccc23)NC(=O)[C@H]2CCCN(C2)C(=O)CCSSCCNC1=O [B4-W-D1/-]	98.9418%		
C[C@H]1NC(=O)[C@H](CCCNC(=O)c2ccc(Cl)s2)NC(=O)CCSSCCNC(=O)CCNC1=O [D2-a-B2/14]	108.542%		
O=C(COc1ccccc1)NCCCC[C@@H]1NC(=O)[C@@H](Cc2c[nH]c3ccccc23)NC(=O)[C@H]2CCCN(C2)C(=O)CCSSCCNC1=O [B4-W-D1/13]	97.6967%		
COc1ccc(C(=O)NCCC[C@@H]2NC(=O)CCNC(=O)CCSSCCNC(=O)[C@H](Cc3ccc(O)cc3)NC2=O)cn1 [B2-D2-Y/10]	105.275%		
NCCCC[C@@H]1NC(=O)[C@@H](Cc2c[nH]c3ccccc23)NC(=O)[C@H]2CCCN(C2)C(=O)CCSSCCNC1=O [B4-w-D1/-]	108.066%		
C[C@H]1NC(=O)CCSSCCNC(=O)[C@H]2CCCN(C2)C(=O)[C@H](CCCCNC(=O)c2ccccc2)NC1=O [a-D1-B4/1]	107.784%		

SMILES	percent residual thrombin activity	% thrombin activity, Original screen	% thrombin activity, Repeat screen
O=C1CCSSCCNC(=O)C2CCCN(C2)C(=O)C(CCCCNC(=O)c2ccc(Cl)s2)NC(=O)C(Cc2ccc(O)cc2)N1 (stereo not drawn) [X Y D1 B4]		97.9%	97.0%
O=C1CCSSCCNC(=O)C(Cc2c[nH]c3ccccc23)NC(=O)C2CC(NC(=O)c3ccc(Cl)s3)CN2C(=O)c2cccc(c2)CN1 (stereo not drawn) [X B5 D5 w]		112.0%	122.3%
O=C(COc1ccccc1)NCCC[C@@H]1NC(=O)CCSSCCNC(=O)c2ccc(cc2)CNC(=O)[C@H](Cc2c[nH]c3ccccc23)NC1=O [D2-W-B3/13]	117.613%		
O=C(COc1ccccc1)NCCCC[C@@H]1NC(=O)[C@H]2CCCN(C2)C(=O)[C@@H](CO)NC(=O)CCSSCCNC1=O [s-B4-D1/13]	112.216%		
CC(C)C[C@@H]1NC(=O)c2cccc(c2)CNC(=O)C2(CCN(C(=O)c3ccc(Cl)s3)CC2)NC(=O)CCSSCCNC1=O [X D6 B5 L]		105.2%	108.9%
O=C1CCSSCCNC(=O)[C@H](Cc2ccc(O)cc2)NC(=O)[C@H](CCCNC(=O)c2c[nH]c(=O)cn2)NC(=O)C2(CC2)CN1 [B6-D2-Y/9]	103.418%		
C[C@H]1NC(=O)[C@H](CCCNC(=O)Cc2c[nH]c3ccccc23)NC(=O)CCSSCCNC(=O)CCNC1=O [D2-a-B2/12]	109.862%		
CC[C@H](C)[C@@H]1NC(=O)CCNC(=O)[C@H](CCCNC(=O)c2ccc(Cl)s2)NC(=O)CCSSCCNC1=O [X D2 B2 I]		101.0%	92.2%
CC[C@H](C)[C@@H]1NC(=O)[C@H](CCCCNC(=O)c2ccco2)NC(=O)CCSSCCNC(=O)C2(CC2)CNC1=O [D1-I-B6/16]	103.501%		
CC(C)[C@H]1NC(=O)[C@H](CCCCNC(=O)c2c[nH]c(=O)cn2)NC(=O)[C@@H]2CCCN2C(=O)CCSSCCNC1=O [B1-D1-v/9] ([Mpa]PK(Pyrazinoyl(5-oxo-4H))[dV]-Cysteamide; disulfide 1-C)	111.698%		
O=C1CCSSCCNC(=O)C(CO)NC(=O)c2ccc(cc2)CNC(=O)C(CCCCNC(=O)c2ccc(Cl)s2)N1 (stereo not drawn) [X D1 B3 S]		99.2%	103.2%
O=C1CCSSCCNC(=O)[C@H](CCCCNC(=O)c2ccccc2)NC(=O)C2(CC2)CNC(=O)[C@H](Cc2c[nH]c3ccccc23)N1 [W-B6-D1/1]	92.2757%		
COc1ccc(C(=O)NCCCC[C@@H]2NC(=O)[C@H](C(C)C)NC(=O)CCSSCCNC(=O)[C@@H]3CCCN3C2=O)cn1 [v-D1-B1/10] ([Mpa]VK(Nicotinoyl(6-OMe))P-Cysteamide; disulfide 1-C)	104.488%		
O=C(NCCCC[C@@H]1NC(=O)[C@@H](Cc2c[nH]c3ccccc23)NC(=O)[C@H]2CCCN(C2)C(=O)CCSSCCNC1=O)c1c[nH]c(=O)cn1 [B4-W-D1/9]	96.1174%		
NC(=O)CC[C@@H]1NC(=O)[C@H]2CCCN(C2)C(=O)CCSSCCNC(=O)C2(CCN(C(=O)c3ccc(Cl)s3)CC2)NC1=O [X B4 Q D6]		93.8%	99.5%
O=C1CCSSCCNC(=O)[C@H](Cc2ccc(O)cc2)NC(=O)[C@H](CCCNC(=O)COc2ccccc2)NC(=O)C2(CC2)CN1 [B6-D2-Y/13]	105.408%		
O=C1CCNC(=O)[C@@H](CO)NC(=O)CCSSCCNC(=O)[C@H](CCCCNC(=O)c2cnccn2)N1 [s-B2-D1/2]	113.66%		
NCCCC[C@@H]1NC(=O)CCSSCCNC(=O)C2(CC2)CNC(=O)[C@H](Cc2cnc[nH]2)NC1=O [D1-H-B6/-]	116.392%		
